What was measured:
Experiment in all cases: Experimental sepsis model in mice, survival on the 7th day
Type in all cases: in vivo
[1] = test system: Staphylococcus aureus (ATCC 25923 F-49); settings: Staphylococcus aureus 10^10 CFU/mouse; 100 mg/kg intravenous daily during 3 days; hybrid mice (CBA×C57Black/6)CBF1
Text: (§1) To determine therapeutic efficiency of betalactam and their pharmaceutical compositions including BHSiO2, we used experimental sepsis models and a statistical processing method of the received data (χ^2) according to [22, 23].
(§2) Microorganisms: Staphylococcus aureus (ATCC ? 25923 F-49), Escherichia coli (ATCC ? 25922 F-50), Pseudomonas aeruginosa (ATCC ? 27853 F-51).
(§3) Animals: for the experiments we used hybrid mice (CBA×C57Black/6)CBF1 according to the “Regulations for test animals use” (USSR Ministry of health order supplement ? 755 from 12.08. 1977).
(§4) The mice have been injected 0.8 ml of Pseudomonas aeruginosa daily culture suspension with a dosage 5×10^8 CFU/mouse or Staphylococcus aureus daily culture suspension with a dosage of 10^10 CFU/mouse or Escherichia coli daily culture suspension with a dosage of 8×10^8 CFU/mouse.
(§5) The control group has been injected with 0.8 ml of normal saline solution (0.9% sodium chloride solution). In a day after being infected the test mice have been daily (during 3 days) intravenous injected with 100 mg/kg of antibiotics or different pharmaceutical compositions (antibiotic/BHSiO2) watered down with 0.25 ml of normal saline solution. The control group of mice has been injected using the same scheme with normal saline solution […].
(§6) Antibacterial therapy efficiency was evaluated basing on the quantity of the surviving animals on the 7th day after being infected.
(§7) The obtained data shown in Table ? 3 reflect the results of 3 independent experiments (for each preparation research were used not less than 30 test animals in total).

[2] = test system: Escherichia coli (ATCC 25922 F-50); settings: Escherichia coli 8×10^8 CFU/mouse; 100 mg/kg intravenous daily during 3 days; hybrid mice (CBA×C57Black/6)CBF1
Text: as §1, §2, §3, §4, §5, §6, §7

[3] = test system: Pseudomonas aeruginosa (ATCC 27853 F-51); settings: Pseudomonas aeruginosa 5×10^8 CFU/mouse; 100 mg/kg intravenous daily during 3 days; hybrid mice (CBA×C57Black/6)CBF1
Text: as §1, §2, §3, §4, §5, §6, §7

SMILES	Mice survival rate on the 7th day of infection [1]	Mice survival rate on the 7th day of infection [2]	Mice survival rate on the 7th day of infection [3]
CO/N=C(\C(=O)N[C@@H]1C(=O)N2C(C(=O)O)=C(COC(C)=O)CS[C@H]12)c1csc(N)n1 [Cefotaxime]	40.0% (12/30)	43.3% (13/30)	–
C[C@@H](O)[C@H]1C(=O)N2C(C(=O)O)=C(S[C@@H]3CN[C@H](C(=O)N(C)C)C3)[C@H](C)[C@H]12 [Meropenem]	73.3% (22/30)	78.0% (32/41)	73.8% (31/42)
CCN1CCN(C(=O)N[C@@H](C(=O)N[C@@H]2C(=O)N3C(C(=O)O)=C(CSc4nnnn4C)CS[C@H]23)c2ccc(O)cc2)C(=O)C1=O [Cefoperazone]	–	45.2% (14/31)	40.0% (12/30)
Cc1nnc(SCC2=C(C(=O)O)N3C(=O)[C@@H](NC(=O)Cn4cnnn4)[C@H]3SC2)s1 [Cefazolin]	37.5% (12/32)	–	–
CO/N=C(\C(=O)N[C@@H]1C(=O)N2C(C(=O)[O-])=C(C[N+]3(C)CCCC3)CS[C@H]12)c1csc(N)n1 [Cefepime]	46.7% (14/30)	43.7% (14/32)	46.7% (14/30)
CO/N=C(\C(=O)N[C@@H]1C(=O)N2C(C(=O)O)=C(CSc3nc(=O)c(=O)[nH]n3C)CS[C@H]12)c1csc(N)n1 [Ceftriaxone]	46.7% (14/30)	41.9% (13/31)	–
CO/N=C(\C(=O)N[C@@H]1C(=O)N2C(C(=O)O)=C(COC(N)=O)CS[C@H]12)c1ccco1 [Cefuroxime]	40.0% (14/35)	43.7% (14/32)	–
CO[C@@]1(NC(=O)Cc2cccs2)C(=O)N2C(C(=O)O)=C(COC(N)=O)CS[C@@H]21 [Cefoxitin]	35.2% (15/34)	46.7% (14/30)	–
CC1(C)S[C@@H]2[C@H](NC(=O)C(C(=O)O)c3ccccc3)C(=O)N2[C@H]1C(=O)O (stereo partly drawn) [Carbenicillin]	46.7% (14/30)	43.3% (13/30)	43.3% (13/30)
C[C@H]1[C@H](NC(=O)/C(=N\OC(C)(C)C(=O)O)c2csc(N)n2)C(=O)N1S(=O)(=O)O [Aztreonam]	–	77.5% (31/40)	74.4% (32/43)
CC(C)(O/N=C(\C(=O)N[C@@H]1C(=O)N2C(C(=O)[O-])=C(C[n+]3ccccc3)CS[C@H]12)c1csc(N)n1)C(=O)O [Ceftazidime]	–	38.7% (15/31)	43.3% (13/30)

Source: patent US20130164337A1, “ANTIMICROBIAL ACTION PHARMACEUTICAL COMPOSITION FOR PARENTERAL ADMINISTRATION AND ITS PRODUCTION PROCESS” (priority 2010, published 2013)
